Patent US20240190886A1, “BRM Targeting Compounds and Associated Methods of Use” (Prelude Therapeutics Incorporated, priority 2022, published 2024)

Legend:
[1] = tested on: SMARCA4 mutated cancer cells; settings: SMARCA 2/4 bromodomain inhibitors; literature statement; cited from earlier work
[2] = target: T1, SMARCA4 (Homo sapiens, UniProt P51532); assay: SMARCA4 HiBiT degradation assay in HeLa cells; format: cell-based; settings: 18 hours incubation, Nano-Glo HiBiT Lytic detection
T1 construct: SMARCA2-HiBiT knock-in Hela monoclonal cell (CS302366) and SMARCA4-HiBiT knock-in Hela monoclonal cell (CS3023226) were purchased from Promega; host or cells: HeLa SMARCA4-HiBiT knock-in monoclonal cells (heterozygous knock-in)
T1 sequence (P51532 whole entry): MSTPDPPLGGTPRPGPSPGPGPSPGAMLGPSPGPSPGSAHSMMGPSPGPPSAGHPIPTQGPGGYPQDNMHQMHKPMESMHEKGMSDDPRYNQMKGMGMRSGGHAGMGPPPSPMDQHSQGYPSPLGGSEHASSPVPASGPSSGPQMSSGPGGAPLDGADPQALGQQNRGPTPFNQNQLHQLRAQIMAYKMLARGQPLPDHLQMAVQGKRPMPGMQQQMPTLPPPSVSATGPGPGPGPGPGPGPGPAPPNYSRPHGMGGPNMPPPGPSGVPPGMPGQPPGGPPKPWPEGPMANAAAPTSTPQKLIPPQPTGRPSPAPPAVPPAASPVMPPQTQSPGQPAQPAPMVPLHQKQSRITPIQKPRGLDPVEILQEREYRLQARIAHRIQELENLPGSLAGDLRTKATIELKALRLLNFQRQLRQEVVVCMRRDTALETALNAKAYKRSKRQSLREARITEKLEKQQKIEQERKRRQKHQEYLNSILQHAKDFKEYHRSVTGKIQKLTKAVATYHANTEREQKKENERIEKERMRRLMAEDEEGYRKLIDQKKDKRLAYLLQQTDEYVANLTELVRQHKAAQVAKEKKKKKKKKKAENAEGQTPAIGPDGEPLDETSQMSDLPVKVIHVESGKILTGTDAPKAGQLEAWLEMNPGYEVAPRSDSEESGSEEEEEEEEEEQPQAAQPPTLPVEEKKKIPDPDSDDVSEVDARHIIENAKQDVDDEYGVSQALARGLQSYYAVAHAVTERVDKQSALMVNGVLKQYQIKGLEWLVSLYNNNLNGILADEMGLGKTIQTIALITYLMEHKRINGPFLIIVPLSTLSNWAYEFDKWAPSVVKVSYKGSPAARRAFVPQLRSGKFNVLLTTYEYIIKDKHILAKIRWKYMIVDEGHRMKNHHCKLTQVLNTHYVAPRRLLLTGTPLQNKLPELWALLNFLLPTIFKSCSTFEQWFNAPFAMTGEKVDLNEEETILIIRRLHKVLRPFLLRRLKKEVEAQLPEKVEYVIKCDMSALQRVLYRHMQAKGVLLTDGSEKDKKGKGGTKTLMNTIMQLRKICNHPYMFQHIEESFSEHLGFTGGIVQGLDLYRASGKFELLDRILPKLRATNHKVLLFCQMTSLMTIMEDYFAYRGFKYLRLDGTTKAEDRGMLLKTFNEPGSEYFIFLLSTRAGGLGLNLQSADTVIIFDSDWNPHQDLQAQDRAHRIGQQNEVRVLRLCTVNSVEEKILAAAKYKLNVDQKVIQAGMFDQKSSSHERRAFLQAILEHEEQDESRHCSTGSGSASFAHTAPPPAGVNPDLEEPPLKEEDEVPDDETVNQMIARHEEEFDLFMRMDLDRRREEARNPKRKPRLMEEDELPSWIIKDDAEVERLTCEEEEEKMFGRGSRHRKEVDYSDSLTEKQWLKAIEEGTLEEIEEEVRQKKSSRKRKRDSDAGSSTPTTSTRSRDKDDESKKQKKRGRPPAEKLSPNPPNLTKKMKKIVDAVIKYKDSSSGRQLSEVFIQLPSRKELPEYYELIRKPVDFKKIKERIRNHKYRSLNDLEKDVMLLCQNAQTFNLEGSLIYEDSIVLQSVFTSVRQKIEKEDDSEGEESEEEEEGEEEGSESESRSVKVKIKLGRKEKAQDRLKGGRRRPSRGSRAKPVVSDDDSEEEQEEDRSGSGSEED
Description: (§1) Example A. SMARCA2 HiBiT and SMARCA4 HiBiT Degradation Assay
(§2) HiBiT peptide knock-in of SMARCA2 in LgBiT expressing HEK293T cells was performed by CRISPR-mediated tagging system as described Promega. The homozygous HiBiT knock-in on c-terminus SMARCA2 was confirmed by sanger sequence. SMARCA2-HiBiT knock-in Hela monoclonal cell (CS302366) and SMARCA4-HiBiT knock-in Hela monoclonal cell (CS3023226) were purchased from Promega. The heterozygous HiBiT-knock-in was confirmed by sanger sequence in both SMARCA2-HiBiT and SMARCA4-HiBiT monoclonal cells.
(§3) SMARCA2 HiBiT and SMARCA4 HiBiT degradation assay in HeLa cells
(§4) Dispense 10 ul aliquot of prepared Hela-SMARCA2-HiBiT or Hela-SMARCA4-HiBiT cells (1:1 ratio of cells:Trypan Blue (#1450013, Bio-Rad)) onto cell counting slide (#145-0011, Bio-Rad) and obtain cell density and cell viability using cell counter (TC20, Bio-Rad). Remove appropriate volume of resuspended cells from culture flask to accommodate 2500 cells/well @20 μL/well. Transfer Hela-HiBiT cells to 50 mL conical (#430290, Corning). Spin down at 1000 rpm for 5 min using tabletop centrifuge (SPINCHRON 15, Beckman). Discard supernatant and resuspend cell pellet in modified EMEM (#30-2003, ATCC) cell culture media containing 10% FBS (F2422-500ML, Sigma), and 1X Penicillin/Streptomycin (200 g/L) (30-002-CI, Corning) to a cell density of 125,000 cells/mL. Dispense 20 μLof resuspended Hela-HiBit cells per well in 384-well TC treated plate (#12-565-343, Thermo Scientific) using standard cassette (#50950372, Thermo Scientific) on Multidrop Combi (#5840310, Thermo Scientific) inside laminar flow cabinet.
(§5) Compounds were dissolved in DMSO to make 10 mM stock and 3-fold series dilutions were further conducted keeping the highest concentration 10 RM. Dispense test compounds onto plates using digital liquid dispenser (D300E, Tecan). Incubate plates in humidified tissue culture incubator @37° C. for 18 hours. Add 20 μL of prepared Nano-Glo® HiBiT Lytic detection buffer (N3050, Promega) to each well of 384-well plate using small tube cassette (#24073295, Thermo Scientific) on Multidrop Combi, incubate @ RT for 30-60 min. Read plates on microplate reader (Envision 2105, PerkinElmer) using 384 well Ultra-Sensitive luminescence mode. Raw data files and compound information reports are swept into centralized data lake and deconvoluted using automated scripts designed by TetraScience, Inc. Data analysis, curve-fitting and reporting done in Dotmatics Informatics Suite using Screening Ultra module.
(§6) In Table 1, A=DC50<0.1 RM; B=0.1 μM≤DC50<1 μM and C=DC50>1 μM. In Table 4, A=Dmax>75% and B=50%<Dmax<75% and C=Dmax<50%.

[3] = target: T2, SMARCA2 (Homo sapiens, UniProt P51531); assay: SMARCA2 HiBiT degradation assay in HeLa cells; format: cell-based; settings: 18 hours incubation, Nano-Glo HiBiT Lytic detection
T2 construct: SMARCA2-HiBiT knock-in Hela monoclonal cell (CS302366) and SMARCA4-HiBiT knock-in Hela monoclonal cell (CS3023226) were purchased from Promega; host or cells: HeLa SMARCA2-HiBiT knock-in monoclonal cells (heterozygous knock-in)
T2 sequence (P51531 whole entry): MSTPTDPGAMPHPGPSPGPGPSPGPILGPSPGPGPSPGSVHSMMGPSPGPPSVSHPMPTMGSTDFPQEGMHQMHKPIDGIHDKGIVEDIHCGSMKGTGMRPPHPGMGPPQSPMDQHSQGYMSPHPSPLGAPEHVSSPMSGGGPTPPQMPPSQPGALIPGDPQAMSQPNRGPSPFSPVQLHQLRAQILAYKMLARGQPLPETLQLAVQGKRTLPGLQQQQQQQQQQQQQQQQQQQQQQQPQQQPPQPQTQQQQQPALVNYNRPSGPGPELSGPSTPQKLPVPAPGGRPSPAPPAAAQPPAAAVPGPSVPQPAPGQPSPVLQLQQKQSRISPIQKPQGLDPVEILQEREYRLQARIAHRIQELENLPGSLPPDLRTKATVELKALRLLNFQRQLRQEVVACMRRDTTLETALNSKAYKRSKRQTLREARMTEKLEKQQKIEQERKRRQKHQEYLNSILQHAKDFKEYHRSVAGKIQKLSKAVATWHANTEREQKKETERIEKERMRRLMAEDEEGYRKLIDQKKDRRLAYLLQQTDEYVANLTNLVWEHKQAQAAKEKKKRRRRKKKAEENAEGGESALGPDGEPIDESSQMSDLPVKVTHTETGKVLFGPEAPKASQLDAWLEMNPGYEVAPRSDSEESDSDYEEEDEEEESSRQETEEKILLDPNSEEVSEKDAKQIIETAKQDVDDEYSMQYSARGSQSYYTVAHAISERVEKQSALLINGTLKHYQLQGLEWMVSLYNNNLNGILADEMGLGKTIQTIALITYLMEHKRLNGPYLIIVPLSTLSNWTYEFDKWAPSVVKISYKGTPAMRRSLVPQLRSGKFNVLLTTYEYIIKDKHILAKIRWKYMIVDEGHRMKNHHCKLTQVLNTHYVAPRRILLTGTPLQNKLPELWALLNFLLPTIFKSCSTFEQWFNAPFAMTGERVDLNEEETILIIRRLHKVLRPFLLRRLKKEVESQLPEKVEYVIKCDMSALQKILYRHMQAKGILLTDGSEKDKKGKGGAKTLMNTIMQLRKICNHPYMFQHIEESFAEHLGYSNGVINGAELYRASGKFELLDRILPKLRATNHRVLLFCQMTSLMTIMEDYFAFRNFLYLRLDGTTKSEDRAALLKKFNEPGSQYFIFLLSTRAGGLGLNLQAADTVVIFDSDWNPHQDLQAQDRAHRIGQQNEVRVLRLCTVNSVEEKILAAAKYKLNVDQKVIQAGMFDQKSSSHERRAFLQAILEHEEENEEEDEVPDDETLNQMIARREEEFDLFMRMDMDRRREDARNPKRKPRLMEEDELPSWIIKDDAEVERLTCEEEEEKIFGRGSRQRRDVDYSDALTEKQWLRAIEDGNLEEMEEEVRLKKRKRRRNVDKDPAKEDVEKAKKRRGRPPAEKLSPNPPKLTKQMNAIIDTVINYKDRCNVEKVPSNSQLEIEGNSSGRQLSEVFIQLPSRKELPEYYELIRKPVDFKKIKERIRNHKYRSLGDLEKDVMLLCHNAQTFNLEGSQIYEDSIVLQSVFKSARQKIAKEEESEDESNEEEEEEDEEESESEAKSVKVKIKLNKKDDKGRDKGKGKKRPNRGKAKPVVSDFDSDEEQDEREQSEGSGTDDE
Description: as §1, §2, §3, §4, §5, §6

Row | SMILES | effects on cell proliferation inhibition [1] | DC50 [2] | Dmax [2] | DC50 [3] | Dmax [3]
1 | O=C(/C=C/N1C[C@H]2C[C@@H]1CN2c1ccccn1)c1ccccc1O [PFI-3] | none to minor effects | – | – | – | –
2 | C[C@@H]1CN(CC2CCN(c3ccc4cn(C5CCC(=O)NC5=O)nc4c3)CC2)C[C@H](C)N1C(=O)N1CCN2c3cc(-c4ccccc4O)nnc3NC[C@H]2C1 (stereo partly drawn) [Example 4, 3-(6-(4-(((3S,5R)-4-((S)-2-(2-hydroxyphenyl)-6,6a,7,8,9,10-hexahydro-5H-pyrazino[1′,2′:4,5]pyrazino[2,3-c]pyridazine-8-carbonyl)-3,5-dimethylpiperazin-1-yl)methyl)piperidin-1-yl)-2H-indazol-2-yl)piperidine-2,6-dione] | – | < 0.1 µM | 50 to 75% | < 0.1 µM | 50 to 75%
3 | C[C@@H]1CN(CC2CCN(c3ccnc(C(=O)NC4CCC(=O)NC4=O)c3)CC2)C[C@H](C)N1C(=O)N1CCN2c3cc(-c4ccccc4O)nnc3NC[C@H]2C1 (stereo partly drawn) [Example 7, N-(2,6-dioxopiperidin-3-yl)-4-[4-[[(3R,5S)-4-[(1OS)-4-(2-hydroxyphenyl) 1,5,6,8,12-pentazatricyclo[8.4.0.02,7]tetradeca-2,4,6-triene-12-carbonyl]-3,5-dimethylpiperazin-1-yl]methyl]piperidin-1-yl]pyridine-2-carboxamide] | – | > 1 µM | – | < 0.1 µM | 50 to 75%
4 | C[C@@H]1CN(CC2CCN(c3ccc4cnn(C5CCC(=O)NC5=O)c4c3)CC2)C[C@H](C)N1C(=O)N1CCN2c3cc(-c4ccccc4O)nnc3NC[C@H]2C1 (stereo partly drawn) [Example 5, 3-(6-(4-(((3R,5S)-4-((S)-2-(2-hydroxyphenyl)-6,6a,7,8,9,10-hexahydro-5H-pyrazino[1′,2′:4,5]pyrazino[2,3-c]pyridazine-8-carbonyl)-3,5-dimethylpiperazin-1-yl)methyl)piperidin-1-yl)-1H-indazol-1-yl)piperidine-2,6-dione] | – | > 1 µM | < 50% | 0.1 to 1 µM | < 50%
5 | CC[C@]12CNc3nnc(-c4ccccc4O)cc3N1C[C@H](Oc1ccc(CN3CCN(c4ccc(C(=O)NC5CCC(=O)NC5=O)cc4)CC3)cn1)C2 (stereo partly drawn) [Example 12, N-(2,6-dioxopiperidin-3-yl)-4-(4-((6-(((6aS,8R)-6a-ethyl-2-(2-hydroxyphenyl)-5,6,6a,7,8,9-hexahydropyrrolo[1′,2′:4,5]pyrazino[2,3-c]pyridazin-8-yl)oxy)pyridin-3-yl)methyl)piperazin-1-yl)benzamide] | – | 0.1 to 1 µM | < 50% | < 0.1 µM | 50 to 75%
